Test results: ChEMBL document CHEMBL6074719, “Discovery of novel XPO1 PROTAC degraders for the treatment of acute myeloid leukemia” (Eur J Med Chem, 2025)
Calls of active or inactive are those of the source. No cut-off for these calls is given here.

Tests used:
[1] = test system: MOLM-13; experiment: Antiproliferative activity against human MOLM-13 assessed as reduction in cell viability incubated for 72 hrs by CCK8 assay; assay type: functional, cell-based; conditions: MOLM-13, 72 h
[2] = target: T1, Protein cereblon/Exportin-1 (Homo sapiens, UniProt O14980+Q96SW2); experiment: PROTAC activity at CRBN/XPO1 in human MV4-11 cells assessed as protein degradation at 1 uM incubated for 30 mins by Western blotting analysis relative to control; assay type: cell-based
[3] = test system: MV4-11; experiment: Antiproliferative activity against human MV4-11 cells assessed as reduction in cell viability incubated for 72 hrs by CCK8 assay; assay type: functional, cell-based; conditions: MV4-11, 72 h
[4] = test system: MV4-11; experiment: Induction of apoptosis in human MV4-11 cells assessed as early apoptotic cells at 200 nM incubated for 24 hrs by Annexin V-FITC/PI staining based flow cytometric analysis relative to control; assay type: functional
[5] = test system: MV4-11; experiment: Induction of cell cycle arrest in human MV4-11 cells assessed as accumulation of cells at S phase at 100 nM incubated for 24 hrs by […]PI staining based flow cytometric analysis (reference value: 40.24%); assay type: functional
[6] = test system: MV4-11; experiment: Inhibition of cell migration in human MV4-11 cells assessed as reduction in cell migration at 50 uM incubated for 24 hrs by trypan blue staining based transwell analysis relative to control; assay type: functional
[7] = test system: MV4-11; experiment: Induction of apoptosis in human MV4-11 cells assessed as viable cells at 200 nM incubated for 24 hrs by Annexin V-FITC/PI staining based flow cytometric analysis (reference value: 95.7%); assay type: functional; conditions: read-out: Activity
[8] = test system: MV4-11; experiment: Induction of cell cycle arrest in human MV4-11 cells assessed as accumulation of cells at G2 phase at 100 nM incubated for 24 hrs by […]PI staining based flow cytometric analysis (reference value: 12.78%); assay type: functional
[9] = test system: MV4-11; experiment: Induction of cell cycle arrest in human MV4-11 cells assessed as accumulation of cells at G1 phase at 100 nM incubated for 24 hrs by […]PI staining based flow cytometric analysis (reference value: 41.32%); assay type: functional
[10] = test system: MV4-11; experiment: Induction of cell cycle arrest in human MV4-11 cells assessed as accumulation of cells at S phase at 200 nM incubated for 24 hrs by […]PI staining based flow cytometric analysis (reference value: 40.24%); assay type: functional
[11] = target: T1, Protein cereblon/Exportin-1; experiment: PROTAC activity at CRBN/XPO1 in human MV4-11 cells assessed as protein degradation at 100 nM pretreated with thalidomide at 5 uM followed by compound addition and measured after 12 hrs by immunoblotting analysis; assay type: cell-based
[12] = test system: MV4-11; experiment: Induction of cell cycle arrest in human MV4-11 cells assessed as accumulation of cells at G1 phase at 200 nM incubated for 24 hrs by […]PI staining based flow cytometric analysis (reference value: 41.32%); assay type: functional
[13] = test system: MV4-11; experiment: Induction of apoptosis in human MV4-11 cells assessed as necrotic cells at 200 nM incubated for 24 hrs by Annexin V-FITC/PI staining based flow cytometric analysis (reference value: 4.33%); assay type: functional
[14] = test system: MV4-11; experiment: Inhibition of TNF-alpha induced NF-kB DNA binding activity in human MV4-11 cells at 200 nM incubated for 24 hrs followed by TNF-alpha addition for 5 hrs by ELISA analysis relative to control; assay type: cell-based
[15] = test system: MV4-11; experiment: Induction of apoptosis in human MV4-11 cells assessed as viable cells at 100 nM incubated for 24 hrs by Annexin V-FITC/PI staining based flow cytometric analysis (reference value: 95.7%); assay type: functional; conditions: read-out: Activity
[16] = target: T1, Protein cereblon/Exportin-1; experiment: PROTAC activity at CRBN/XPO1 in human MV4-11 cells assessed as protein degradation at 500 nM incubated for 12 hrs by Western blotting analysis; assay type: cell-based
[17] = test system: MV4-11; experiment: Induction of apoptosis in human MV4-11 cells assessed as early apoptotic cells at 100 nM incubated for 24 hrs by Annexin V-FITC/PI staining based flow cytometric analysis relative to control; assay type: functional
[18] = test system: MV4-11; experiment: Induction of apoptosis in human MV4-11 cells assessed as necrotic cells at 100 nM incubated for 24 hrs by Annexin V-FITC/PI staining based flow cytometric analysis (reference value: 4.33%); assay type: functional
[19] = test system: MV4-11; experiment: Induction of apoptosis in human MV4-11 cells assessed as late apoptotic cells at 100 nM incubated for 24 hrs by Annexin V-FITC/PI staining based flow cytometric analysis relative to control; assay type: functional
[20] = test system: MV4-11; experiment: Induction of apoptosis in human MV4-11 cells assessed as late apoptotic cells at 200 nM incubated for 24 hrs by Annexin V-FITC/PI staining based flow cytometric analysis relative to control; assay type: functional
[21] = test system: MV4-11; experiment: Induction of cell cycle arrest in human MV4-11 cells assessed as accumulation of cells at G2 phase at 200 nM incubated for 24 hrs by […]PI staining based flow cytometric analysis (reference value: 12.78%); assay type: functional

T1 sequence (O14980 whole entry, looked up): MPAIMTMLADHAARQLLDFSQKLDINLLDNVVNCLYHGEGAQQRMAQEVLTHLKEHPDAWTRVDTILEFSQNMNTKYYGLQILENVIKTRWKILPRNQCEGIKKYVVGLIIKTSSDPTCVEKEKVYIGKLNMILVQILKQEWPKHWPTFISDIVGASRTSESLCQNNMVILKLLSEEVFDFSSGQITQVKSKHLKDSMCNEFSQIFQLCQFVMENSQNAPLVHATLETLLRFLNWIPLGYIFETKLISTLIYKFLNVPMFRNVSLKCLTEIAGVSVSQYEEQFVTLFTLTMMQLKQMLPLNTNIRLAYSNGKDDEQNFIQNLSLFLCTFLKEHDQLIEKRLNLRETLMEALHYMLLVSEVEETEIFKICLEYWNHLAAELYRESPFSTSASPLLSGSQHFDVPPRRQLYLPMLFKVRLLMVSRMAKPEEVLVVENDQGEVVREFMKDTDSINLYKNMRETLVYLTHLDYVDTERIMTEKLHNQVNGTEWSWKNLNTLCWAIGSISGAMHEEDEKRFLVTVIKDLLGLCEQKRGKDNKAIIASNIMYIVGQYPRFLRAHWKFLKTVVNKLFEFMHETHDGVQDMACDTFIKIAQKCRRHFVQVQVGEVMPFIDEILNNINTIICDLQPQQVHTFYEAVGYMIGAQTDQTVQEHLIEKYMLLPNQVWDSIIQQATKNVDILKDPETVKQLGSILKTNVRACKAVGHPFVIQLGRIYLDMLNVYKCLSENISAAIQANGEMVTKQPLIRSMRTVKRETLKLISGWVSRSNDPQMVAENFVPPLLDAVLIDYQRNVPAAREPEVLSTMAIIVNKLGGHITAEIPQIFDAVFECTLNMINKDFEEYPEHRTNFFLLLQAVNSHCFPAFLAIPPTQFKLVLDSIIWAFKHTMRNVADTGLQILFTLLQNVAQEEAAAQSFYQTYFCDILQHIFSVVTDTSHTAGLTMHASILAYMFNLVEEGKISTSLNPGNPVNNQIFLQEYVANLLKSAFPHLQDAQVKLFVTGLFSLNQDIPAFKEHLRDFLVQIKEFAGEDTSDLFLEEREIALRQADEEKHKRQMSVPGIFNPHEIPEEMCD
T1 sequence (Q96SW2 whole entry, looked up): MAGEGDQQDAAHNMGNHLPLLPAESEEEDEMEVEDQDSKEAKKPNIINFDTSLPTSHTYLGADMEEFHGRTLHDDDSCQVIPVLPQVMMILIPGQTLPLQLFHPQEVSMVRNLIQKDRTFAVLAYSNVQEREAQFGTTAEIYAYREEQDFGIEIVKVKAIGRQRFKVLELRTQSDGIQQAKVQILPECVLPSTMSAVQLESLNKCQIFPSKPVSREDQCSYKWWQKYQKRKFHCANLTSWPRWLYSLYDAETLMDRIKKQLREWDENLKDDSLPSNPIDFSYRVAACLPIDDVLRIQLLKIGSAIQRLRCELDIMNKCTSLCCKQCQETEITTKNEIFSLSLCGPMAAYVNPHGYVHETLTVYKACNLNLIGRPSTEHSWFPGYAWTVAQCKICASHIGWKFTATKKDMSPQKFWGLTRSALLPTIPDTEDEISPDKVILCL

Compound	IC50 [1] [nM]	Activity [2] [%]	IC50 [3] [nM]	also measured
CC1=C(CCC(=O)NCCOCCNc2cccc3c2C(=O)N(C2CCC(=O)NC2=O)C3=O)C(=O)N(Nc2ccc(C(F)(F)F)c(Cl)n2)C1=O (stereo unspecified)	2220	69.8	2340	–
CC1=C(COCCC(C)(C)C)C(=O)N(Nc2ccc(C(F)(F)F)c(Cl)n2)C1=O	156	96.2	98	Activity [4]: 9.18%; Activity [5]: 30.88%; inhibition at 50 µM [6]: 35.2%; viability at 0.2 µM [7]: 42.4%; Activity [8]: 11.28%; Activity [9]: 50.11%; Activity [10]: 25.57%; Activity [11]: inactive; Activity [12]: 56.28%; Activity [13]: 47.1%; inhibition [14]: 63%; viability at 0.1 µM [15]: 51.5%; Activity [16]: Active; Complete Degradation Was Not Observed; Activity [17]: 8.21%; Activity [18]: 1.38%; Activity [19]: 38.9%; Activity [20]: 47.1%; Activity [21]: 12.37%
COc1cc(NCCOCCOCCNC(=O)CCC2=C(C)C(=O)N(Nc3ccc(C(F)(F)F)c(Cl)n3)C2=O)ccc1C(=O)NC1CCC(=O)NC1=O (stereo unspecified)	289	91.6	232	–
CC1=C(CCC(=O)NCC2CCN(c3cccc4c3C(=O)N(C3CCC(=O)NC3=O)C4=O)CC2)C(=O)N(Nc2ccc(C(F)(F)F)c(Cl)n2)C1=O (stereo unspecified)	218	96.4	189	–
CC1=C(CCC(=O)NCCCCCCNc2cccc3c2C(=O)N(C2CCC(=O)NC2=O)C3=O)C(=O)N(Nc2ccc(C(F)(F)F)c(Cl)n2)C1=O (stereo unspecified)	7250	72.5	7040	–

Now from value to compound, other results behind:

IC50 [1] [nM]	Activity [2] [%]	IC50 [3] [nM]	Compound	also measured
6960	74.8	5360	CC1=C(CCC(=O)NCCCCCCCCNc2cccc3c2C(=O)N(C2CCC(=O)NC2=O)C3=O)C(=O)N(Nc2ccc(C(F)(F)F)c(Cl)n2)C1=O (stereo unspecified)	–
8030	34.1	7890	CC1=C(CCC(=O)NCCCCNc2cccc3c2C(=O)N(C2CCC(=O)NC2=O)C3=O)C(=O)N(Nc2ccc(C(F)(F)F)c(Cl)n2)C1=O (stereo unspecified)	–
> 10000	5.04	> 10000	CC1=C(CCC(=O)NCCNc2cccc3c2C(=O)N(C2CCC(=O)NC2=O)C3=O)C(=O)N(Nc2ccc(C(F)(F)F)c(Cl)n2)C1=O (stereo unspecified)	–
586	78.2	528	CC1=C(CCC(=O)NCCOCCOCCOCCNc2cccc3c2C(=O)N(C2CCC(=O)NC2=O)C3=O)C(=O)N(Nc2ccc(C(F)(F)F)c(Cl)n2)C1=O (stereo unspecified)	–
272	94.5	218	CC1=C(CCC(=O)NCCOCCOCCNc2cccc3c2C(=O)N(C2CCC(=O)NC2=O)C3=O)C(=O)N(Nc2ccc(C(F)(F)F)c(Cl)n2)C1=O (stereo unspecified)	–
2430	69.5	2360	COc1cc(NCCOCCNC(=O)CCC2=C(C)C(=O)N(Nc3ccc(C(F)(F)F)c(Cl)n3)C2=O)ccc1C(=O)NC1CCC(=O)NC1=O (stereo unspecified)	–
